Tested on: seedlings
Assay: Preliminary and greenhouse tests of 1-octen-3-ol on plant growth
Type: in vivo
Description: These endophytic microorganisms frequently are fully symbiotic with plants (Harman, Howell, et al., 2004). These endophytic symbionts have abilities to induce multiple beneficial effects in plants, including induced resistance to diseases and potentially other pests; resistance to abiotic stresses such as drought, salt and flooding; improved efficiency of uses of nitrogen and other plant nutrients; enhancement of seed germination and seedling vigor; and enhanced plant growth and development. There are numerous diverse genera of microbes that induce at least most of these changes in plant performance, including mycorrhizae, plant growth promoting rhizobacteria, and Basidomycetous fungi in the Sebaciles such as Piriformaspora indica. These organisms have an endophytic versus a plant pathogenic life style (Shoresh, Mastouri, et al., 2010) typical of numerous other plant-associated microorganisms. The systemic changes in plant gene expression are presumed to be induced by the production of specific triggering metabolites from these different organisms. […]
Unexpected is the effect of the OMEGA biorational seed treatments that contain the fungal metabolite 1-octen-3-ol, yeast extract and humic acid (Leonardite shale). […] Thus the quantities applied are very small and cannot grow or proliferate on or in plants so their effects were expected to be transitory. […]

C=CC(O)CCCCC (centres unmarked) [1-octen-3-ol]
seedling growth (greenhouse, 200 to 20,000 pL in different formulations, data not shown): plant growth promotive effects on seedling growth | plant growth (very low concentrations, preliminary work): strongly enhances plant growth
